From patent US20140107568A1, “METHOD OF DETERMINING AN INJECTED DOSE BASED ON A KNOWN ORAL DOSE” (ANTARES PHARMA, INC., priority 2012, published 2014)

Excerpt: An algorithm was developed to correlate a known oral dose of methotrexate to a jet injector dose. Table 1 illustrates the calculated correlation between oral doses and needle-assisted jet injector doses of methotrexate. The second column illustrates the precise subcutaneous dose calculated based on the algorithm, described in detail below. The third column represents the administrable dose, based on commercially available doses, closest in value to the precise calculated dose.
Based on the data set forth in table 1, a line equation of y=mx+b was developed to correlate an oral dose of methotrexate to an equivalent dose for use with a jet injector. In the present equation, illustrated by the graph shown in FIG. 1, the slope, m, was determined to be 0.6101 and a y-intercept, b, to be 2.9274. The correlation coefficient of the line, R^2, is 0.9594.

slope, m, of line equation y=mx+b correlating oral dose to equivalent jet injector dose: 0.6101 | y-intercept, b, of line equation y=mx+b correlating oral dose to equivalent jet injector dose: 2.9274
SMILES: CN(Cc1cnc2nc(N)nc(N)c2n1)c1ccc(C(=O)N[C@@H](CCC(=O)O)C(=O)O)cc1 [methotrexate]
